What was measured:
[1] = target: T1, Melanin-concentrating hormone receptor 1 (Homo sapiens, UniProt Q99705); experiment: Concentration required to inhibit binding of [125I]MCH radioligand to human melanin-concentrating hormone receptor 1 in IMR-32 I3.4.2 cell membranes
[2] = target: T1, Melanin-concentrating hormone receptor 1; experiment: Concentration required to inhibit 50% of melanin-concentrating hormone induced [Ca2+] flux in IMR-32 cells measured by using a fluorometric imaging plate reader; assay type: functional, cell-based
[3] = Maximum concentration in brain was determined at the peroral dose of 10 mg/kg in diet-induced obese (DIO) mice; unit may be (ng/mL or ng/g); assay type: ADME, organism-based; design: dose 10 mg/kg, route oral; details: mouse, po
[4] = Maximum concentration in plasma was determined at the peroral dose of 10 mg/kg in diet-induced obese (DIO) mice; unit may be (ng/mL or ng/g); assay type: ADME, organism-based; design: dose 10 mg/kg, route oral; details: mouse, po
[5] = Half life in brain was determined at the peroral dose of 10 mg/kg in diet-induced obese (DIO) mice; assay type: ADME, organism-based; design: dose 10 mg/kg, route oral; details: mouse, po
[6] = Half life in plasma was determined at the peroral dose of 10 mg/kg in diet-induced obese (DIO) mice; assay type: ADME, organism-based; design: dose 10 mg/kg, route oral; details: mouse, po
[7] = Area under curve in plasma was determined at the peroral dose of 10 mg/kg in diet-induced obese (DIO) mice; unit may be (ng.h/mL or ng. h/g); assay type: ADME, organism-based; design: dose 10 mg/kg, route oral; details: mouse, in vivo, po
[8] = Area under curve in brain was determined at the peroral dose of 10 mg/kg in diet-induced obese (DIO) mice; unit may be (ng.h/mL or ng. h/g); assay type: ADME, organism-based; design: dose 10 mg/kg, route oral; details: mouse, in vivo, po

T1 sequence (Q99705 whole entry): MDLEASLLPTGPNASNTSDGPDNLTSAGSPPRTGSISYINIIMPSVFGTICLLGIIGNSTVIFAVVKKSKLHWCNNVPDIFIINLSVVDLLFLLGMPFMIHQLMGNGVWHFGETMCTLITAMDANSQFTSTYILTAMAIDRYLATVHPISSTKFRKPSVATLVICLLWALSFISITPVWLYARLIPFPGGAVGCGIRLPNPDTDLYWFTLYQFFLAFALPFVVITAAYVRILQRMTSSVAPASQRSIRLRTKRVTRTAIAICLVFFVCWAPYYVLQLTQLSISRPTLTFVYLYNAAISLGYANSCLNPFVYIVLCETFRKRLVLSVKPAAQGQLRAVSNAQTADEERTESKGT

| IC50 [1] [nM] | IC50 [2] [nM] | Compound | also measured |
| --- | --- | --- | --- |
| > 2000 |  | CSCCOc1cccc2ccc(N)nc12 |  |
| 606 |  | COCC(C)Oc1cccc2ccc(N)nc12 (stereo not drawn) |  |
| 349 |  | CC1CCC(Oc2cccc3ccc(N)nc23)CC1 (stereo not drawn) |  |
| > 2000 |  | Nc1ccc2cccc(OC3CCCC3)c2n1 |  |
| > 2000 |  | CC(C)=CCOc1cccc2ccc(N)nc12 |  |
| 361 |  | Nc1ccc2cccc(OC3CCCCC3)c2n1 |  |
| > 2000 |  | CC(C)OCCOc1cccc2ccc(N)nc12 |  |
| 41 | 211 | CC(CC(C)(C)C)Oc1cccc2ccc(N)nc12 (stereo in doubt; 19) |  |
| 432 |  | Nc1ccc2cccc(OCC3CCC3)c2n1 |  |
| > 2000 |  | Nc1ccc2cccc(OC3CCC3)c2n1 |  |
| 60 | 530 | CC(CC(C)(C)C)Oc1cccc2ccc(NCc3ccc(-c4ccccc4Cl)o3)nc12 (stereo not drawn) |  |
| 201 |  | CC(C)(C)CCOc1cccc2ccc(N)nc12 |  |
| 105 | 860 | CCCC(C)Oc1cccc2ccc(N)nc12 (stereo not drawn) |  |
| > 2000 |  | CC#CCCOc1cccc2ccc(N)nc12 |  |
| 174 | 5310 | CCC(C)Oc1cccc2ccc(N)nc12 (stereo not drawn) |  |
| 115 | 6240 | Nc1ccc2cccc(OCC3CCOC3)c2n1 (stereo not drawn) |  |
| 1100 |  | CCCOc1cccc2ccc(N)nc12 |  |
| > 2000 |  | CCOCCOc1cccc2ccc(N)nc12 |  |
| 199 |  | CC(C)C(C)Oc1cccc2ccc(N)nc12 (stereo not drawn) |  |

| IC50 [1] [nM] | IC50 [2] [nM] | Compound | also measured |
| --- | --- | --- | --- |
| > 2000 |  | CC(C)COc1cccc2ccc(N)nc12 |  |
| 326 |  | CCC(CC)Oc1cccc2ccc(N)nc12 |  |
| > 2000 | > 10000 | CC(CC(C)(C)C)Oc1cccc2ccc(N(C)C)nc12 (stereo not drawn) |  |
| > 2000 |  | Nc1ccc2cccc(OCC3CC3)c2n1 |  |
| 1590 |  | COc1cccc2ccc(N)nc12 |  |
| > 2000 |  | Nc1ccc2cccc(OCC3CCCO3)c2n1 (stereo not drawn) |  |
| > 2000 |  | Nc1ccc2cccc(O)c2n1 |  |
| 550 | 4510 | CC(CC(C)(C)C)Oc1cccc2ccc(N)nc12 (single isomer, unassigned; (+)) |  |
| > 2000 |  | COCCOc1cccc2ccc(N)nc12 |  |
| 137 | 1730 | Nc1ccc2cccc(OCC3CC4CCC3C4)c2n1 (stereo not drawn) |  |
| > 2000 |  | CCC#CCOc1cccc2ccc(N)nc12 |  |
| 36 |  | CCC(C)COc1cccc2ccc(N)nc12 (stereo not drawn) |  |
| 310 | 6090 | CNc1ccc2cccc(OC(C)CC(C)(C)C)c2n1 (stereo not drawn) |  |
| 640 |  | CC1CCCC(Oc2cccc3ccc(N)nc23)C1 (stereo not drawn) |  |
| 492 |  | Nc1ccc2cccc(OCCC3CC3)c2n1 |  |
| 137 | 3480 | Nc1ccc2cccc(OC3CCCCCC3)c2n1 |  |
| 20 | 90 | CC(CC(C)(C)C)Oc1cccc2ccc(N)nc12 (single isomer, unassigned) | Cmax [3]: 595 ng/mL; Cmax [4]: 127 ng/mL; half-life [5]: 2.3 h; half-life [6]: 1.9 h; AUC [7]: 247 ng·h/mL; AUC [8]: 1030 ng·h/mL |
| 818 |  | CCCCCCOc1cccc2ccc(N)nc12 |  |
| 1070 |  | CCOCC(C)Oc1cccc2ccc(N)nc12 (stereo not drawn) |  |

| IC50 [1] [nM] | IC50 [2] [nM] | Compound | also measured |
| --- | --- | --- | --- |
| > 2000 | > 10000 | CC(CC(C)(C)C)Oc1cccc2ccc(N3CCCCC3)nc12 (stereo not drawn) |  |
| 722 |  | Nc1ccc2cccc(OCCC(F)(F)F)c2n1 |  |
| 306 |  | CC(COC(C)(C)C)Oc1cccc2ccc(N)nc12 (stereo not drawn) |  |
| 53 | 2290 | Nc1ccc2cccc(OCC3CCCC3)c2n1 |  |
| > 2000 | > 10000 | CC(CC(C)(C)C)Oc1cccc2ccc(N3CCCC3)nc12 (stereo not drawn) |  |
| 614 |  | CC(C)CCOc1cccc2ccc(N)nc12 |  |
| > 2000 | > 10000 | CC(CC(C)(C)C)Oc1cccc2ccc(NCC3CC3)nc12 (stereo not drawn) |  |
| 191 | 1300 | CCC(CC)C(C)Oc1cccc2ccc(N)nc12 (stereo not drawn) |  |
| 808 |  | Nc1ccc2cccc(OCCC3CCCCC3)c2n1 |  |
| > 2000 |  | COCCOCCOc1cccc2ccc(N)nc12 |  |
| 789 |  | CCCCOc1cccc2ccc(N)nc12 |  |
| 90 | 1680 | Nc1ccc2cccc(OCC3CCCCC3)c2n1 |  |
| > 2000 | > 10000 | CC(CC(C)(C)C)Oc1cccc2cccnc12 (stereo not drawn) |  |
| 132 | 4670 | COC(C)(C)CCOc1cccc2ccc(N)nc12 |  |
| 823 |  | CC1CCC(Oc2cccc3ccc(N)nc23)C1 (stereo not drawn) |  |
| 32 | 1330 | CC1CCCCC1Oc1cccc2ccc(N)nc12 (stereo not drawn) |  |
| 437 |  | CC(C)Oc1cccc2ccc(N)nc12 |  |
| 1640 |  | CC1CC1COc1cccc2ccc(N)nc12 (stereo not drawn) |  |
| 580 |  | CCCCCOc1cccc2ccc(N)nc12 |  |
